Each structure is given as a SMILES string.

Experiment [1] has as its target T1, OtaS/OtaL ADP-Glc PPase (Ostreococcus tauri, UniProt A0A090M9E5+A0A096P9X2, A0A096P9X2:L24M). Put plainly: ADP-[…]Glc formation, activation curve, Hill fit. In kind it is biochemical. Further details: gene OT_ostta07g03070; heterotetramer alpha2beta2, co-expressed from pMAB5/OtaS and pMAB6/OtaL in E. coli AC70R1-504; DEAE and Resource PHE purification, no tag mentioned. The settings on record: allosteric activator; 50 mM HEPPS pH 8.0, 10 mM MgCl2, 1 mM Glc1P, 2.5 mM ATP, 37°C, no Pi; read-out: A0.5.

Experiment [2] addresses T2, StuSK441A/OtaL hybrid heterotetramer (Solanum tuberosum; Ostreococcus tauri, UniProt A0A096P9X2+P23509, A0A096P9X2:L24M/P23509:K511A).
T2 construct: hybrid heterotetramer: potato tuber small subunit K441A co-expressed with O. tauri large subunit in E. coli AC70R1-504; purified
Put plainly: ADP-[…]Glc formation, activation curve, Hill fit. The settings on record: read-out: A0.5; allosteric activator; 50 mM HEPPS pH 8.0, 10 mM MgCl2, 1 mM Glc1P, 2.5 mM ATP, 2 mM DTT, 37°C, no Pi. It is filed as biochemical.

Experiment [3] addresses T3, OtaS/OtaL ADP-Glc PPase (Ostreococcus tauri, UniProt A0A090M9E5+A0A096P9X2, A0A096P9X2:R476K/A0A090M9E5:K508R, form not given).
T3 construct: gene OT_ostta07g03070; heterotetramer alpha2beta2, co-expressed from pMAB5/OtaS and pMAB6/OtaL in E. coli AC70R1-504; DEAE and Resource PHE purification, no tag mentioned
Briefly: ADP-[…]Glc formation, activation curve, Hill fit. It is filed as biochemical. Particulars: allosteric activator; 50 mM HEPPS pH 8.0, 10 mM MgCl2, 1 mM Glc1P, 2.5 mM ATP, 37°C, no Pi; read-out: A0.5.

Experiment [4] addresses T4, StuSK441A/OtaL hybrid heterotetramer (Solanum tuberosum; Ostreococcus tauri, UniProt A0A096P9X2+P23509, A0A096P9X2:R476K/P23509:K511A, form not given).
T4 construct: hybrid heterotetramer: potato tuber small subunit K441A co-expressed with O. tauri large subunit in E. coli AC70R1-504; purified
Put plainly: ADP-[…]Glc formation, activation curve, Hill fit. In kind it is biochemical. The settings on record: read-out: A0.5; allosteric activator; 50 mM HEPPS pH 8.0, 10 mM MgCl2, 1 mM Glc1P, 2.5 mM ATP, 2 mM DTT, 37°C, no Pi.

Experiment [5] deals with T5, OtaS/OtaL ADP-Glc PPase (Ostreococcus tauri, UniProt A0A090M9E5+A0A096P9X2, A0A096P9X2:L24M/A0A090M9E5:K508R). Put plainly: ADP-[…]Glc formation, activation curve, Hill fit. In kind it is biochemical. Details: gene OT_ostta07g03070; heterotetramer alpha2beta2, co-expressed from pMAB5/OtaS and pMAB6/OtaL in E. coli AC70R1-504; DEAE and Resource PHE purification, no tag mentioned. Particulars: allosteric activator; 50 mM HEPPS pH 8.0, 10 mM MgCl2, 1 mM Glc1P, 2.5 mM ATP, 37°C, no Pi; read-out: A0.5.
T5 sequence (A0A090M9E5 entry or part of it K508R): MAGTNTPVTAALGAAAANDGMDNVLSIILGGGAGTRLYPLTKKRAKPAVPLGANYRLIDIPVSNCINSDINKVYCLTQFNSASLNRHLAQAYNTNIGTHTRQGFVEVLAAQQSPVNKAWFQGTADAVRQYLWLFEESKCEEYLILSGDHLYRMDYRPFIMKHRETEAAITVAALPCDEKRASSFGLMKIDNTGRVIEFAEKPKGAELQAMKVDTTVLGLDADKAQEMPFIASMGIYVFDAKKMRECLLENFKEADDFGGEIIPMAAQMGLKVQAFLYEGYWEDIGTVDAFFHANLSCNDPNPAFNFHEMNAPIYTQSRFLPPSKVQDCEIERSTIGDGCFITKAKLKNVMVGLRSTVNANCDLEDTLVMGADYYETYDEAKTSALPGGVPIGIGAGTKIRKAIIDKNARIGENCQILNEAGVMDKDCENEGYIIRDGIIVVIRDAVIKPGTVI
T5 sequence (A0A096P9X2 entry or part of it L24M): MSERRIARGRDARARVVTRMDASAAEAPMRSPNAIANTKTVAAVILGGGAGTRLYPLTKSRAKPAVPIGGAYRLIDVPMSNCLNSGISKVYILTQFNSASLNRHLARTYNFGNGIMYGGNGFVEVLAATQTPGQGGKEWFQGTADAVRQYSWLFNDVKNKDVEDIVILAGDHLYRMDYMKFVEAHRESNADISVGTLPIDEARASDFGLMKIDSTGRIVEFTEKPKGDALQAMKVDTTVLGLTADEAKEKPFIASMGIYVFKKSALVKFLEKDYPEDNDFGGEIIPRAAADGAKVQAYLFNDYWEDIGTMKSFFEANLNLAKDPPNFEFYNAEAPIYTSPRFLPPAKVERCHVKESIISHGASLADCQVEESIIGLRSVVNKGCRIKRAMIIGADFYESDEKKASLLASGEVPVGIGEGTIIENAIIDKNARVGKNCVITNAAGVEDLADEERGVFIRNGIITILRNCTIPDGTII

The target of experiment [6] is T6, OtaS/OtaL ADP-Glc PPase (Ostreococcus tauri, UniProt A0A090M9E5+A0A096P9X2, A0A096P9X2:R476K, form not given).
T6 construct: gene OT_ostta07g03070; heterotetramer alpha2beta2, co-expressed from pMAB5/OtaS and pMAB6/OtaL in E. coli AC70R1-504; DEAE and Resource PHE purification, no tag mentioned
T6 sequence (A0A096P9X2 entry or part of it R476K, form open): as the sequence (A0A096P9X2 entry or part of it L24M) above, with M1L, R453K counted along it
T6 sequence (A0A090M9E5 entry or part of it, form open): as the sequence (A0A090M9E5 entry or part of it K508R) above, with R443K counted along it
Put plainly: ADP-[…]Glc formation, activation curve, Hill fit. It is filed as biochemical. Particulars: allosteric activator; 50 mM HEPPS pH 8.0, 10 mM MgCl2, 1 mM Glc1P, 2.5 mM ATP, 37°C, no Pi; read-out: A0.5.

For experiment [7], the target named is T5, OtaS/OtaL ADP-Glc PPase. Details: gene OT_ostta07g03070. Particulars: read-out: I0.5; allosteric inhibitor; 3PGA present at its A0.5 (1.6 mM); 50 mM HEPPS pH 8.0, 10 mM MgCl2, 1 mM Glc1P, 2.5 mM ATP, 37°C. An excerpt:
(§1) ADP-Glc PPase activity, inhibition curve, Hill fit on OtaS/OtaL ADP-Glc PPase

The target of experiment [8] is T1, OtaS/OtaL ADP-Glc PPase. Details: gene OT_ostta07g03070. The settings on record: read-out: I0.5; allosteric inhibitor; 3PGA present at its A0.5 (0.61 mM); 50 mM HEPPS pH 8.0, 10 mM MgCl2, 1 mM Glc1P, 2.5 mM ATP, 37°C.
Excerpt: as §1

T1 sequence (A0A090M9E5 entry or part of it): as the sequence (A0A090M9E5 entry or part of it K508R) above, with R443K counted along it
T1 sequence (A0A096P9X2 entry or part of it L24M): as the sequence (A0A096P9X2 entry or part of it L24M) above
T2 sequence (A0A096P9X2 entry or part of it L24M): as above
T2 sequence (P23509 73-521 K511A): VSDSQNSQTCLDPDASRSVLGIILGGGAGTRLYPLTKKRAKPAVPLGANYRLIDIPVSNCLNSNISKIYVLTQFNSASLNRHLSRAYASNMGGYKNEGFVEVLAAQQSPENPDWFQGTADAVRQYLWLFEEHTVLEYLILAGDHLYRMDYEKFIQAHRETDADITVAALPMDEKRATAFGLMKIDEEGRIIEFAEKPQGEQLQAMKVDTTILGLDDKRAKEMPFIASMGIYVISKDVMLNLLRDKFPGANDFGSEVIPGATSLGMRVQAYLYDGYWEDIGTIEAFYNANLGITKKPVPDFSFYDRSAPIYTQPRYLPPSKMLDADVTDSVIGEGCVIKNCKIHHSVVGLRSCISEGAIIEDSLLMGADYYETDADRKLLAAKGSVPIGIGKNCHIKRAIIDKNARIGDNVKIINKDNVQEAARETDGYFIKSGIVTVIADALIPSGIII
T3 sequence (A0A096P9X2 entry or part of it R476K, form open): as the sequence (A0A096P9X2 entry or part of it L24M) above, with M1L, R453K counted along it
T3 sequence (A0A090M9E5 entry or part of it K508R, form open): as the sequence (A0A090M9E5 entry or part of it K508R) above
T4 sequence (P23509 73-521 K511A, form open): as the sequence (P23509 73-521 K511A) above
T4 sequence (A0A096P9X2 entry or part of it R476K, form open): as the sequence (A0A096P9X2 entry or part of it L24M) above, with M1L, R453K counted along it

As for `O=C(O)[C@H](O)COP(=O)(O)O` [3PGA], the EC50 amounted to 610 ± 30 µM at OtaS/OtaL ADP-Glc PPase [1]; 1200 ± 100 µM in experiment [2]; 740 ± 80 µM on OtaS/OtaL ADP-Glc PPase [3]; 400 ± 20 µM in experiment [4]; 1600 ± 600 µM on OtaS/OtaL ADP-Glc PPase [5]; 190 ± 10 µM at OtaS/OtaL ADP-Glc PPase [6].

For `O=P(O)(O)O` [Pi], the IC50 at OtaS/OtaL ADP-Glc PPase [7] was 1600 ± 200 µM; at OtaS/OtaL ADP-Glc PPase [8] it was 179 ± 4 µM.

The record behind these values is PMC6218581, “Resurrecting the Regulatory Properties of the Ostreococcus tauri ADP-Glucose Pyrophosphorylase Large Subunit” (Frontiers in Plant Science, 2018).
